The NIST ThermoML archive (doi:10.1021/je100801s)

Tests used:
[1] = for Normal melting temperature: DTA
[2] = Molar enthalpy of transition or fusion; conditions: Crystal; DSC

NC(=O)c1cccc(F)c1 [3-fluorobenzamide]
[1]
Conditions	vapor or sublimation pressure [kPa]
323.1 K, Crystal, Calculated from knudsen effusion weight loss	9e-05
325.17 K, Crystal, Calculated from knudsen effusion weight loss	0.000114
327.18 K, Crystal, Calculated from knudsen effusion weight loss	0.000143
329.08 K, Crystal, Calculated from knudsen effusion weight loss	0.000183
331.13 K, Crystal, Calculated from knudsen effusion weight loss	0.000229
333.18 K, Crystal, Calculated from knudsen effusion weight loss	0.000286
336.83 K, Crystal, Closed cell (Static) method	0.00046
337.28 K, Crystal, Calculated from knudsen effusion weight loss	0.000461
339.17 K, Crystal, Calculated from knudsen effusion weight loss	0.000559
339.76 K, Crystal, Closed cell (Static) method	0.00063
341.08 K, Crystal, Calculated from knudsen effusion weight loss	0.000688
342.87 K, Crystal, Closed cell (Static) method	0.00089
343.13 K, Crystal, Calculated from knudsen effusion weight loss	0.000842
345.18 K, Crystal, Calculated from knudsen effusion weight loss	0.001032
345.87 K, Crystal, Closed cell (Static) method	0.0012
348.82 K, Crystal, Closed cell (Static) method	0.00166
351.66 K, Crystal, Closed cell (Static) method	0.00222
354.65 K, Crystal, Closed cell (Static) method	0.003
357.76 K, Crystal, Closed cell (Static) method	0.00407
360.59 K, Crystal, Closed cell (Static) method	0.00535
363.62 K, Crystal, Closed cell (Static) method	0.0071
366.55 K, Crystal, Closed cell (Static) method	0.00941
372.5 K, Crystal, Closed cell (Static) method	0.01592
375.47 K, Crystal, Closed cell (Static) method	0.02067
378.58 K, Crystal, Closed cell (Static) method	0.02712
382.58 K, Liquid, Closed cell (Static) method	0.0587
384.49 K, Crystal, Closed cell (Static) method	0.04471
387.47 K, Crystal, Closed cell (Static) method	0.05659
387.53 K, Liquid, Closed cell (Static) method	0.07955
390.45 K, Crystal, Closed cell (Static) method	0.07258
392.49 K, Liquid, Closed cell (Static) method	0.108
396.38 K, Crystal, Closed cell (Static) method	0.1148
397.43 K, Liquid, Closed cell (Static) method	0.1444
402.37 K, Liquid, Closed cell (Static) method	0.1895
407.27 K, Liquid, Closed cell (Static) method	0.2514
412.23 K, Liquid, Closed cell (Static) method	0.3264
417.16 K, Liquid, Closed cell (Static) method	0.4262
422.04 K, Liquid, Closed cell (Static) method	0.5472
427.02 K, Liquid, Closed cell (Static) method	0.7039
432 K, Liquid, Closed cell (Static) method	0.9006

Conditions	Normal melting temperature [°C]
[1], Crystal	128.43

Conditions	Molar enthalpy of transition or fusion [kcal/mol]
[2]	5.14

NC(=O)c1ccc(F)cc1 [4-fluorobenzamide]
[1], Closed cell (Static) method
Conditions	vapor or sublimation pressure [kPa]
344.79 K, Crystal	0.0007
347.76 K, Crystal	0.00097
350.74 K, Crystal	0.0013
353.73 K, Crystal	0.00174
356.7 K, Crystal	0.00236
359.68 K, Crystal	0.00313
362.66 K, Crystal	0.0041
365.63 K, Crystal	0.00535
368.61 K, Crystal	0.00699
371.58 K, Crystal	0.009
374.54 K, Crystal	0.01167
377.53 K, Crystal	0.015
380.48 K, Crystal	0.01934
383.47 K, Crystal	0.02445
386.43 K, Crystal	0.03134
392.35 K, Crystal	0.04995
395.33 K, Crystal	0.06299
398.28 K, Crystal	0.07872
401.25 K, Crystal	0.09854
404.24 K, Crystal	0.1266
407.22 K, Crystal	0.1568
410.16 K, Crystal	0.1944
410.2 K, Liquid	0.2629
412.16 K, Liquid	0.2902
413.14 K, Crystal	0.2396
414.13 K, Liquid	0.3222
416.1 K, Crystal	0.2948
416.11 K, Liquid	0.3584
418.11 K, Liquid	0.3963
419.06 K, Crystal	0.3637
420.05 K, Liquid	0.4398
422.01 K, Crystal	0.4419
422.03 K, Liquid	0.4862
424.02 K, Liquid	0.5382
424.99 K, Crystal	0.538
426 K, Liquid	0.593
427.93 K, Liquid	0.6524
429.92 K, Liquid	0.719
431.89 K, Liquid	0.7879
433.87 K, Liquid	0.8708
435.84 K, Liquid	0.9508
437.82 K, Liquid	1.04

Conditions	Normal melting temperature [°C]
[1], Crystal	156.04

Conditions	Molar enthalpy of transition or fusion [kcal/mol]
[2]	4.66

NC(=O)c1ccccc1F [o-fluorobenzamide]
[1]
Conditions	vapor or sublimation pressure [kPa]
303.12 K, Crystal, Calculated from knudsen effusion weight loss	0.000102
305.21 K, Crystal, Calculated from knudsen effusion weight loss	0.00013
307.19 K, Crystal, Calculated from knudsen effusion weight loss	0.000166
309.12 K, Crystal, Calculated from knudsen effusion weight loss	0.000213
311.2 K, Crystal, Calculated from knudsen effusion weight loss	0.00027
313.29 K, Crystal, Calculated from knudsen effusion weight loss	0.000341
315.11 K, Crystal, Calculated from knudsen effusion weight loss	0.000429
317.2 K, Crystal, Calculated from knudsen effusion weight loss	0.00054
317.98 K, Crystal, Closed cell (Static) method	0.0006
319.18 K, Crystal, Calculated from knudsen effusion weight loss	0.000668
320.48 K, Crystal, Closed cell (Static) method	0.0008
321.11 K, Crystal, Calculated from knudsen effusion weight loss	0.000843
322.94 K, Crystal, Closed cell (Static) method	0.00105
323.18 K, Crystal, Calculated from knudsen effusion weight loss	0.001059
325.18 K, Crystal, Calculated from knudsen effusion weight loss	0.001295
325.41 K, Crystal, Closed cell (Static) method	0.00137
327.86 K, Crystal, Closed cell (Static) method	0.00175
330.38 K, Crystal, Closed cell (Static) method	0.00233
332.86 K, Crystal, Closed cell (Static) method	0.003
335.32 K, Crystal, Closed cell (Static) method	0.0038
337.75 K, Crystal, Closed cell (Static) method	0.00484
340.21 K, Crystal, Closed cell (Static) method	0.00617
342.7 K, Crystal, Closed cell (Static) method	0.00785
345.32 K, Crystal, Closed cell (Static) method	0.01002
350.2 K, Crystal, Closed cell (Static) method	0.01581
355.69 K, Crystal, Closed cell (Static) method	0.02544
357.75 K, Crystal, Closed cell (Static) method	0.03116
358.65 K, Liquid, Closed cell (Static) method	0.05979
360.13 K, Crystal, Closed cell (Static) method	0.03777
361.55 K, Liquid, Closed cell (Static) method	0.07225
362.71 K, Crystal, Closed cell (Static) method	0.04753
364.59 K, Liquid, Closed cell (Static) method	0.08814
365.1 K, Crystal, Closed cell (Static) method	0.05735
367.55 K, Liquid, Closed cell (Static) method	0.1048
370.04 K, Crystal, Closed cell (Static) method	0.08597
370.55 K, Liquid, Closed cell (Static) method	0.126
372.63 K, Crystal, Closed cell (Static) method	0.1058
375.47 K, Liquid, Closed cell (Static) method	0.1688
377.6 K, Crystal, Closed cell (Static) method	0.1572
380.43 K, Liquid, Closed cell (Static) method	0.225
385.38 K, Liquid, Closed cell (Static) method	0.2972
391.35 K, Liquid, Closed cell (Static) method	0.4081
394.82 K, Liquid, Closed cell (Static) method	0.4892
397.41 K, Liquid, Closed cell (Static) method	0.5572
399.81 K, Liquid, Closed cell (Static) method	0.6302
402.34 K, Liquid, Closed cell (Static) method	0.7124
404.79 K, Liquid, Closed cell (Static) method	0.8064
407.26 K, Liquid, Closed cell (Static) method	0.9115
409.66 K, Liquid, Closed cell (Static) method	1.024
412.16 K, Liquid, Closed cell (Static) method	1.147

Conditions	Normal melting temperature [°C]
[1], Crystal	115.34

Conditions	Molar enthalpy of transition or fusion [kcal/mol]
[2]	4.95
